The values below come from ChEMBL document CHEMBL3632594, “Synthesis of scutellarein derivatives to increase biological activity and water solubility” (Bioorg Med Chem, 2015).

As usually defined, the IC50 is the concentration at which inhibition is half-maximal. As a reminder, the solubility is the concentration that dissolves in the medium under given conditions.

Data set [1] can be described thus: Antithrombotic activity in New Zealand white rabbit platelet poor plasma assessed as fibrinogen at 100 uM incubated for 3 mins by coagulometer based assay. It is filed as functional, Oryctolagus cuniculus.
Data set [2] is described as follows: Antithrombotic activity in New Zealand white rabbit platelet poor plasma assessed as increase in prothrombin time at 100 uM incubated for 3 mins by coagulometer based assay. It is filed as functional, Oryctolagus cuniculus.
Data set [3] is described as follows: Antithrombotic activity in New Zealand white rabbit platelet poor plasma assessed as prolongation of thrombin time at 100 uM incubated for 3 mins by coagulometer based assay. It counts as functional, Oryctolagus cuniculus.
Data set [4] in a line: Antithrombotic activity in New Zealand white rabbit platelet poor plasma assessed as increase in activated partial thromboplastin time at 100 uM incubated for 3 mins by coagulometer based assay. It is filed as functional, Oryctolagus cuniculus.
The nature of data set [5]: Antioxidant activity assessed as DPPH radical scavenging by spectrophotometric analysis. It counts as physicochemical. Background: The DPPH test is a chemical assay of radical scavenging.
Data set [6] can be described thus: Neuroprotective activity against H2O2-induced cytotoxicity in rat PC12 cells assessed as cell viability at 50 uM by MTT assay. It counts as functional. To be noted: PC-12, read-out: INH.
A short description of data set [7]: Neuroprotective activity against H2O2-induced cytotoxicity in rat PC12 cells assessed as cell viability at 25 uM by MTT assay. It counts as functional. To be noted: PC-12, read-out: INH. (Tetrazolium assays rely on reduction of a dye to a coloured formazan, in cell work by metabolically active cells.)
A short description of data set [8]: Solubility of compound in water at 0.1 to 10 ug/ml by UV spectrophotometry. It is filed as physicochemical.
The nature of data set [9]: Solubility of compound in water at 0.1 to 10 ug/ml by UV spectrophotometry relative to scutellarein. It is filed as physicochemical. To be noted: buffer.

Values after ≈ are worked out from the molar mass of the structure shown.

`O=C(Oc1ccc(-c2cc(=O)c3c(O)c(O)c(O)cc3o2)cc1)N1CCOCC1`: in data set [1], the Activity stood at 5.52 g/L. Further, the PT in data set [2] was 8.55 s. Moreover, the TT in data set [3] was 24.62 s. For the same compound, in data set [4], the APTT is listed as 28.28 s. Further, the IC50 in data set [5] was 19.3 µM. The cell viability at 50 µM in data set [6] is 94.2%. In addition, the neuroprotection (% cell viability vs H2O2 cytotoxicity) at 25 µM in data set [7] worked out at 73.9%. The same compound yielded a solubility in [8] of 15.3 µg/mL (≈ 38.4 µM). Further, the “fold change (FC)” value in [9] came to 2.34.
Turning to `CN1CCN(C(=O)Oc2ccc(-c3cc(=O)c4c(O)c(O)c(O)cc4o3)cc2)CC1`, in [1], the Activity was determined as 5.42 g/L. Moreover, the PT in data set [2] came out at 7.03 s. The TT in data set [3] was found to be 24.52 s. Further, the APTT in [4] is reported as 26.87 s. In [5], the IC50 is 18.9 µM. The cell viability at 50 µM in [6] was 92.5%. Further, the neuroprotection (% cell viability vs H2O2 cytotoxicity) at 25 µM in data set [7] was determined as 68.6%. The same compound returned a solubility in [8] of 15.1 µg/mL (≈ 36.5 µM). The “fold change (FC)” value in data set [9] amounted to 2.2.
For the compound `CCN(CC)C(=O)COc1ccc(-c2cc(=O)c3c(O)c(O)c(O)cc3o2)cc1`, the Activity in [1] amounted to 5.37 g/L. For the same compound, the PT in [2] worked out at 7.45 s. The TT in [3] turned out to be 20.92 s. Also, in data set [4], the APTT was determined as 26.4 s. For the same compound, the half-inhibitory concentration (IC50) in [5] was 81.3 µM. In [6], the cell viability at 50 µM is 66.4%. For the same compound, the neuroprotection (% cell viability vs H2O2 cytotoxicity) at 25 µM in [7] is 44.7%. The compound also returned a solubility in data set [8] of 8.95 µg/mL (≈ 22.4 µM). The “fold change (FC)” value in data set [9] is 1.31.
Turning to `CCN(CC)C(=O)Oc1ccc(-c2cc(=O)c3c(O)c(O)c(O)cc3o2)cc1`, the Activity in [1] was determined as 5.21 g/L. The PT in data set [2] is 7.67 s. Besides, the TT in [3] is reported as 24.36 s. The APTT in data set [4] was found to be 28.2 s. Also, the 50% inhibitory concentration (IC50) in [5] turned out to be 32.6 µM. Moreover, the cell viability at 50 µM in data set [6] worked out at 75.2%. In addition, the neuroprotection (% cell viability vs H2O2 cytotoxicity) at 25 µM in [7] came to 51.3%. The same compound returned a solubility in data set [8] of 9.23 µg/mL (≈ 24 µM). For the same compound, the “fold change (FC)” value in data set [9] worked out at 1.35.
Consider `O=C(O)[C@H]1O[C@@H](Oc2cc3oc(-c4ccc(O)cc4)cc(=O)c3c(O)c2O)[C@H](O)[C@@H](O)[C@@H]1O` [SCUTELLARIN], for which the Activity in [1] is recorded as 6.13 g/L. The PT in data set [2] worked out at 6.28 s. In data set [3], the TT amounted to 23.08 s. In data set [4], the APTT is 34.18 s. For the same compound, the IC50 in data set [5] was 27.9 µM. Besides, the cell viability at 50 µM in [6] is 79.2%. In [7], the neuroprotection (% cell viability vs H2O2 cytotoxicity) at 25 µM stood at 53.1%.
Consider `CN(C)CCOc1ccc(-c2cc(=O)c3c(O)c(O)c(O)cc3o2)cc1`, for which the Activity in [1] is 5.11 g/L. The PT in [2] is on record as 6.82 s. In addition, in data set [3], the TT came to 22.97 s. Moreover, in data set [4], the APTT came to 29.97 s. The half-inhibitory concentration (IC50) in [5] stood at 215 µM. Further, the cell viability at 50 µM in data set [6] was 56.2%. In addition, in [7], the neuroprotection (% cell viability vs H2O2 cytotoxicity) at 25 µM is 35.8%. Besides, the concentration in solution in [8] (solubility) came to 9.28 µg/mL (≈ 26 µM). Moreover, the “fold change (FC)” value in [9] is given as 1.35.
Consider `O=c1cc(-c2ccc(O)cc2)oc2cc(O)c(O)c(O)c12` [SCUTELLAREIN], for which, in [1], the Activity is 6.84 g/L. For the same compound, the PT in data set [2] was found to be 5.93 s. The TT in data set [3] is recorded as 24.4 s. Also, the APTT in data set [4] is 36.65 s. Further, the half-maximal inhibitory concentration (IC50) in data set [5] was 22.6 µM. For the same compound, the cell viability at 50 µM in data set [6] worked out at 91.2%. Moreover, the neuroprotection (% cell viability vs H2O2 cytotoxicity) at 25 µM in data set [7] was determined as 64.6%. The “fold change (FC)” value in data set [9] is 1.
Take `CN(C)C(=O)Oc1ccc(-c2cc(=O)c3c(O)c(O)c(O)cc3o2)cc1`: in [1], the Activity stood at 5.56 g/L. Besides, in [2], the PT came to 8.1 s. Also, in data set [3], the TT was 24.3 s. Further, the APTT in [4] was 27.78 s. For the same compound, in [5], the IC50 is 37.2 µM. Besides, the cell viability at 50 µM in data set [6] came to 71.2%. Also, the neuroprotection (% cell viability vs H2O2 cytotoxicity) at 25 µM in [7] was found to be 48.7%. The same compound showed a solubility in data set [8] of 9.56 µg/mL (≈ 26.8 µM). Also, in data set [9], the “fold change (FC)” value is reported as 1.4.
`O=c1cc(-c2ccc(OCCN3CCOCC3)cc2)oc2cc(O)c(O)c(O)c12`: the Activity in data set [1] is listed as 5.23 g/L. Further, the PT in [2] was 6.7 s. Moreover, the TT in data set [3] is reported as 19.7 s. Further, the APTT in [4] is given as 29.05 s. The IC50 in [5] was determined as 264 µM. In addition, the cell viability at 50 µM in [6] worked out at 48.2%. The neuroprotection (% cell viability vs H2O2 cytotoxicity) at 25 µM in data set [7] was found to be 32.3%. This compound yielded a solubility in [8] of 9.4 µg/mL (≈ 23.5 µM). In addition, in data set [9], the “fold change (FC)” value turned out to be 1.37.
On to `CC(C)N(C(=O)Oc1ccc(-c2cc(=O)c3c(O)c(O)c(O)cc3o2)cc1)C(C)C`, for which, in data set [1], the Activity turned out to be 5.65 g/L. The PT in data set [2] came to 7.97 s. Also, in data set [3], the TT is reported as 24.57 s. In [4], the APTT was found to be 27.97 s. Besides, in data set [5], the IC50 was 17 µM. In addition, the cell viability at 50 µM in data set [6] was 93.4%. Further, the neuroprotection (% cell viability vs H2O2 cytotoxicity) at 25 µM in data set [7] is 71.7%. For the same compound, the solubility in [8] was 8.67 µg/mL (≈ 21 µM). Also, in data set [9], the “fold change (FC)” value stood at 1.27.
On to `O=C(COc1ccc(-c2cc(=O)c3c(O)c(O)c(O)cc3o2)cc1)N1CCOCC1`, for which the Activity in data set [1] was found to be 5.49 g/L. In [2], the PT came to 7.33 s. The TT in data set [3] is listed as 19.9 s. Moreover, the APTT in data set [4] worked out at 27.1 s. In addition, in [5], the IC50 is 83.3 µM. Moreover, in [6], the cell viability at 50 µM was 64.6%. The neuroprotection (% cell viability vs H2O2 cytotoxicity) at 25 µM in [7] was 43.4%. In data set [8], the concentration in solution (solubility) came to 9.45 µg/mL (≈ 22.9 µM). Also, the “fold change (FC)” value in data set [9] turned out to be 1.38.
Consider `CCN(CC)CCOc1ccc(-c2cc(=O)c3c(O)c(O)c(O)cc3o2)cc1`, for which, in [1], the Activity was found to be 5.72 g/L. Moreover, the PT in [2] is 6.9 s. In addition, the TT in data set [3] was 22.03 s. Moreover, the APTT in data set [4] came out at 30.45 s. Moreover, the half-inhibitory concentration (IC50) in data set [5] came to 205 µM. For the same compound, the cell viability at 50 µM in data set [6] came to 58.4%. In data set [7], the neuroprotection (% cell viability vs H2O2 cytotoxicity) at 25 µM amounted to 38.5%. This compound also registered a solubility in data set [8] of 8.68 µg/mL (≈ 22.5 µM). Moreover, the “fold change (FC)” value in data set [9] turned out to be 1.27.
Turning to `CN(C)C(=O)COc1ccc(-c2cc(=O)c3c(O)c(O)c(O)cc3o2)cc1`, the Activity in [1] was determined as 5.14 g/L. Further, the PT in data set [2] stood at 7.17 s. Moreover, the TT in [3] turned out to be 22.27 s. For the same compound, the APTT in data set [4] worked out at 29.25 s. Also, in data set [5], the half-inhibitory concentration (IC50) was determined as 80.7 µM. For the same compound, in [6], the cell viability at 50 µM was 68.1%. In addition, the neuroprotection (% cell viability vs H2O2 cytotoxicity) at 25 µM in data set [7] was found to be 46.5%. The compound further showed a solubility in [8] of 9.32 µg/mL (≈ 25.1 µM). Moreover, the “fold change (FC)” value in [9] was found to be 1.36.
On to `O=c1cc(-c2ccc(OCCCN3CCOCC3)cc2)oc2cc(O)c(O)c(O)c12`, for which the Activity in data set [1] is 5.42 g/L. Moreover, in data set [2], the PT is 6.63 s. In addition, the TT in data set [3] amounted to 19.6 s. Further, in data set [4], the APTT stood at 28.25 s. Further, the IC50 in data set [5] was determined as 274 µM. Moreover, in data set [6], the cell viability at 50 µM turned out to be 44.2%. Besides, in [7], the neuroprotection (% cell viability vs H2O2 cytotoxicity) at 25 µM came out at 28.3%. In [8], this compound came in with a solubility of 8.56 µg/mL (≈ 20.7 µM). For the same compound, in data set [9], the “fold change (FC)” value was determined as 1.25.
As to `CN(C)CCCOc1ccc(-c2cc(=O)c3c(O)c(O)c(O)cc3o2)cc1`, the Activity in data set [1] is on record as 5.28 g/L. Moreover, in data set [2], the PT was 6.15 s. Further, the TT in data set [3] was 19.9 s. In addition, the APTT in [4] stood at 26.58 s. Moreover, the half-maximal inhibitory concentration (IC50) in data set [5] was 231 µM. Also, the cell viability at 50 µM in data set [6] was 52.2%. In addition, the neuroprotection (% cell viability vs H2O2 cytotoxicity) at 25 µM in data set [7] is 33.6%. Also, the solubility in data set [8] was found to be 8.5 µg/mL (≈ 22.9 µM). The “fold change (FC)” value in [9] stood at 1.24.
